# Biological target: T1, HIV-1 protease (HIV-1 M:B_HXB2R, UniProt P04585)
# T1 construct: enzyme solution in MES-ALB buffer
# Assay: HIV-1 protease inhibitor assay (particle concentration fluorescence, Pandex)
# Type: biochemical
# Details: inhibitor at a concentration of about 7 μM; FIG. 1
# Protocol: The modified decapeptide is dissolved in a suitable buffer at a pH between about 5 and about 6 to form a solution at a desirable concentration, e.g. about 1.5 μg/ml. A separate solution of the protease in the same buffer is prepared at a sufficient concentration of protease to hydrolyze all substrate. To each well of a round-bottom, 96-well plate, e.g. a polystyrene microtiter plate, is added the enzyme solution followed by a buffered solution of the inhibitor compound. The solution of the inhibitor may be diluted in 20% aqueous dimethylsulfoxide when necessary for solubility. The plates are allowed to stand for about one hour at about room temperature before the substrate solution is added to each well. […] Unbound fluorescence is removed by filtration and subsequent washing with buffer. Any bound fluorescence is detected by excitation at 485 nm and reading the resulting epifluorescence at 535 nm. The amount of fluorescence indicates the extent to which the enzymatic reaction is inhibited.
# As described hereinabove the Pandex Plates used in the assay method are 96-well two-chamber plates (upper and lower chambers) wherein the chambers are separated by a […] pore size membrane. […] Any fluorescent marked cleavage fragment (unbound fluorescence) in the wells is washed from the well and out of the plate. […]
substance,measurement,value
Ac-Nal-Pro-Phe-Val-Sta-Leu-Phe-NH2,percent inhibition of the protease,100%

# From patent publication US5235039A, “Substrates for HIV protease” (Eli Lilly and Company, priority 1991, dated 1993)
